Earlier results as cited in patent US20110256058A1, “Novel Peptides and Uses Thereof” (UNIVERSITY OF SOUTHERN CALIFORNIA, priority 2007, published 2011).

System: α2 aI domain
Conditions: literature; for conformational effect on α2 receptor: open conformation of α2 receptor

CARKKHDC [RKKH peptide of structural studies in the literature]
conformational effect on α2 receptor: induce conformational change

CTRKKHDC [RKKH peptide of structural studies in the literature]
conformational effect on α2 receptor: induce conformational change

CTRKKHDNAQC
binding to aI domain: binds to aI domain | inhibition of aI domain / α2β1 binding to collagen and laminin: prevents its binding to collagen (type I, IV) and laminin (type 1)

RSECD
inhibition of aI domain / α2β1 binding to collagen and laminin: fails to inhibit collagen binding
